# Test results: patent publication US6787651B2, “Substituted indoles, pharmaceutical compounds containing such indoles and their use as PPAR-γ binding agents” (SmithKline Beecham Corporation, priority 2000, dated 2004)
# pIC50: −log10 of the molar value.
# Molecular target: T1, PPARγ ligand binding domain (LBD) (amino acids 195-475) (Homo sapiens, UniProt P37231)
# T1 construct: polyHis; made in house; host or cells: Escherichia coli
# T1 sequence (P37231 195-475 isoform P37231-2): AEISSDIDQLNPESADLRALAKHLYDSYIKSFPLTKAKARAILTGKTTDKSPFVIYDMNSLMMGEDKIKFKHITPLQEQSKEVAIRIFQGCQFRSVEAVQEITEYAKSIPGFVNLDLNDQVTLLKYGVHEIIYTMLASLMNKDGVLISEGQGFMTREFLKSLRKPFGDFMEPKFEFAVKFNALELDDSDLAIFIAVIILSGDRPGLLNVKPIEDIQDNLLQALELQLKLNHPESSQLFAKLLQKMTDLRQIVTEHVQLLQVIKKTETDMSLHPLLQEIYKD
# Test: PPAR-γ binding assay (spin plate / gel filtration binding assay, displacement of [3H]BRL 49653)
# Conditions: read-out: IC50 range in the PPAR-γ Binding Assay
# Description: The activity of a given compound in binding to PPAR-γ can be assayed routinely according to procedures known in the art. […] The PPAR-γ binding assay described below was used to determine the PPAR-γ binding activities of the compounds of the invention.
# Compounds were tested for their ability to bind to PPARγ using a spin plate assay (gel filtration binding assay). […] Each compound was tested in triplicate. […] The plates were centrifuged (Beckman GS-6R) at 2500 rpm for 5 minutes, 170 μl Scitisafe® scintillation fluid (Fisher) was added to each well, the plates were sealed, and after 1 hour, were counted in a Wallac MicroBeta counter. The amount of nonspecific binding, as assessed by control wells containing 10 μM of the corresponding unlabeled ligand, was subtracted from each data point. For each compound tested, the data was averaged and plots of ligand concentration versus CPM of radioligand bound were constructed. Apparent IC50 values were estimated from nonlinear least-squares fit of the data assuming simple competitive binding.
row,Compound,pIC50
1,COc1cccc(Cn2c(C(=O)O)c(-c3ccc(OCC4CC4)cc3)c3cc(OCc4ccc(C(=O)O)cc4)ccc32)c1 [Example 322],5.00 to 8.00
2,O=C(O)c1c(-c2nc3cc(Cl)ccc3o2)c2ccccc2n1Cc1cccc(C(F)(F)F)c1 [Example 248],5.00 to 8.00
3,COc1cccc(Cn2c(C(=O)O)c(-c3ccc(C(C)(C)C)cc3)c3cc(C(O)C4CC4)ccc32)c1 (stereo not drawn) [Example 255],5.00 to 8.00
4,COc1cccc(Cn2c(C(=O)O)c(-c3ccc(C(C)(C)C)cc3)c3cc(C(=O)C4CC4)ccc32)c1 [Example 254],5.00 to 8.00
5,COc1cccc(Cn2c(C(=O)O)c(-c3ccc(C(C)(C)C)cc3)c3cc(CCOCC4CC4)ccc32)c1 [Example 275],8.00 to 10.00
6,O=C(O)c1c(-c2nc3ccccc3o2)c2ccccc2n1Cc1cccc(C(F)(F)F)c1 [Example 247],5.00 to 8.00
7,"CCOc1ccc2c(c1)c(-c1ccc(OCC3CC3)cc1)c(C(=O)O)n2Cc1cccc(OC)c1 [Example 330, 3-[4-(Cyclopropylmethoxy)phenyl]-5-ethoxy-1-(3-methoxybenzyl)-1H-indole-2-carboxylic acid]",8.00 to 10.00
8,COc1cccc(Cn2c(C(=O)O)c(-c3ncc(C4CC4)s3)c3ccccc32)c1 [Example 344],8.00 to 10.00
9,CC(C)(C)c1ccc2oc(-c3c(C(=O)O)n(Cc4cccc(C(F)(F)F)c4)c4ccccc34)nc2c1 [Example 249],8.00 to 10.00
10,CN1CCCC1CCOc1ccc2cc(C(=O)O)n(Cc3cccc(C(F)(F)F)c3)c2c1 (stereo not drawn) [Example 280],5.00 to 8.00
11,"COc1ccc(-c2c(C(=O)O)n(C(=O)c3cccc(C(F)(F)F)c3)c3ccccc23)cc1 [Example 338, 3-(4-Methoxyphenyl)-1-{[3-(trifluoromethyl)phenyl]carbonyl}indole-2-carboxylic Acid]",5.00 to 8.00
12,COc1cccc(Cn2c(C(=O)O)c(-c3ccc(OCC4CC4)cc3)c3cc(OCc4cccc(C(F)(F)F)c4)ccc32)c1 [Example 321],8.00 to 10.00
13,COc1cccc(Cn2c(C(=O)O)c(-c3ccc(C(=O)N(C)C4CCCC4)cc3)c3ccccc32)c1 [Example 304],8.00 to 10.00
14,COc1cccc(-c2c(C(=O)O)n(Cc3cccc(OCC4CC4)c3)c3ccccc23)c1 [Example 283],8.00 to 10.00
15,O=C(O)c1c(-c2ccc(SC3CC3)cc2)c2ccccc2n1Cc1cccc(C(F)(F)F)c1 [Example 262],8.00 to 10.00
16,CCCOc1ccc2c(c1)c(-c1ccc(OCC3CC3)cc1)c(C(=O)O)n2Cc1cccc(OC)c1 [Example 331],8.00 to 10.00
17,COc1cccc(Cn2c(C(=O)O)c(-c3ccc(C4CC4)cc3)c3ccccc32)c1 [Example 261],8.00 to 10.00
18,COc1cccc(Cn2c(C(=O)O)c(-c3ccc(SC4CC4)cc3)c3ccccc32)c1 [Example 263],8.00 to 10.00
19,O=C(O)c1c(-c2nc3cc(C(F)(F)F)ccc3s2)c2ccccc2n1Cc1cccc(C(F)(F)F)c1 [Example 257],8.00 to 10.00
20,COc1cccc(Cn2c(C(=O)O)c(-c3ccc(C(C)(C)C)cc3)c3cccc(C(=O)C4CC4)c32)c1 [Example 252],5.00 to 8.00
21,C=CCOc1ccc2c(c1)c(-c1ccc(OCC3CC3)cc1)c(C(=O)O)n2Cc1cccc(OC)c1 [Example 333],5.00 to 8.00
22,COc1cccc(Cn2c(C(=O)O)c(-c3ccc(OCC4CC4)cc3)c3cc(OCCCc4ccccc4)ccc32)c1 [Example 320],8.00 to 10.00
23,O=C(O)c1c(C(=O)N2CCOCC2)c2ccccc2n1Cc1cccc(C(F)(F)F)c1 [Example 245],5.00 to 8.00
24,O=C(O)c1c(-c2ccc(C3CC3)cc2)c2ccccc2n1Cc1cccc(C(F)(F)F)c1 [Example 260],8.00 to 10.00
25,O=C(O)c1c(-c2cccc(OCC3CC3)c2)c2ccccc2n1Cc1cccc(OC(F)(F)F)c1 [Example 340],8.00 to 10.00
26,COc1cccc(Cn2c(C(=O)O)c(-c3ccc(OCC4CCCCO4)cc3)c3ccccc32)c1 (stereo not drawn) [Example 306],5.00 to 8.00
27,"CCOc1ccc(-c2c(C(=O)O)n(Cc3ccc(F)cc3)c3ccc(CCOCC4CC4)cc23)cc1 [Example 348, 5-[2-(Cyclopropylmethoxy)ethyl]-3-(4-ethoxyphenyl)-1-(4-fluorobenzyl)-1H-indole-2-carboxylic acid]",8.00 to 10.00
